The values that follow are results of earlier work, collected in patent US10155751B2, “Pyrazolyl-substituted heteroaryls and their use as medicaments” (Boehringer Ingelheim International GmbH, priority 2015, dated 2018).

SMILES strings stand for the structures.

The test system of data set [1] is platelet counts in patients with ITP. To be noted: Podolanczuk et al, Blood (2009); cited from earlier work.
For a further data set, the target named is Aurora B (AURB) (Homo sapiens (Human), UniProt Q96GD4). To be noted: Thoma et al, Bioorganic & Medicinal Chemistry Letters (2015); cited from earlier work.
Aurora B (AURB), sequence (Q96GD4 whole entry): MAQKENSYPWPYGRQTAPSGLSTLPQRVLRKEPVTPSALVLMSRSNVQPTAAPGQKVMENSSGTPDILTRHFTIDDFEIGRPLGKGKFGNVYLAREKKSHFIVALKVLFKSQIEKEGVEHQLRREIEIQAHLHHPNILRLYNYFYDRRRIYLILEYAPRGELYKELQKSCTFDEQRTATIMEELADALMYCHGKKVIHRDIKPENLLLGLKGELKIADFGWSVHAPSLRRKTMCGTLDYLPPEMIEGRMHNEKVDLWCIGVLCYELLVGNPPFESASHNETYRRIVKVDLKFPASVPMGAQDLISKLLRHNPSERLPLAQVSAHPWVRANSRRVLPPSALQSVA

As for `COc1cc(Nc2ncc(F)c(Nc3ccc4c(n3)N(COP(=O)(O)O)C(=O)C(C)(C)O4)n2)cc(OC)c1OC` [Example R788], the platelet counts result in data set [1] is on record as “improved platelet counts”. Take `C[C@@H](Oc1cc(-c2cnn(C3CC3)c2)cc2nn(C)c(F)c12)[C@H]1CNC(=O)C1` [compound No. 5]: the “inhibition of Aurora B (AURB)” value on Aurora B (AURB) is recorded as “inhibited Aurora B”.
